Test results: patent US9469616B2, “Cyclic compounds and methods of making and using the same” (Cellceutix Corporation, priority 2011, dated 2016)
In brackets after ≈: the same amount, converted by molar mass. Several values for one entry are separate records, joined by “and”; a condition that tells them apart may be missing. Equal entries are not always repeated.

Columns and labels:
S. aureus (27660) = test: MIC assay (Table 1); type: cell-based; conditions: Staphylococcus aureus, isolate 27660
P. aeruginosa (10145) = test: MIC assay (Table 1); type: cell-based; conditions: Pseudomonas aeruginosa, isolate 10145
Escherichia coli = test: Antimicrobial activity (MIC) of aryl compounds (Table 2); type: cell-based
Source text: (§1) A new series of aryl compounds was designed to evaluate the effect of charge and aromatic group hydrophobicity on the biological activity while still maintaining an amphiphilic topology. Four and six cationic charges were investigated, and three different central rings were used to tune the overall hydrophobicity: benzene, naphthalene, and phenylbenzene. The hydrophobicities of the aryl compounds were quantified using reversed-phase HPLC retention times (Rt). The antimicrobial activities (expressed as minimum inhibitory concentration (MIC)) of these compounds were tested against four pathogens, including both Gram-negative and Gram-positive bacteria, and their hemolysis (evaluated in terms of HC50, the lowest concentration that causes 50% hemolysis of red blood cells (RBCs)) was tested against human RBCs.

Staphylococcus aureus = test: as above; type: cell-based
Source text: as §1

human RBCs = type: cell-based; conditions: 1 h, pH 7.4
Source text: as §1
Cytotoxicity of the compounds is also evaluated in a hemolysis assay using human erythrocytes. Pooled whole human blood is centrifuged to separate the red blood cells (RBC). The isolated RBCs are rinsed and diluted in Tris-buffered saline (TBS buffer, pH 7.4) to obtain a 0.22% RBC stock suspension. 5 μL of a Compound stock solution is added to 45 μL of RBC suspension and incubated with shaking for 1 hour at 37° C. At the conclusion of the incubation time, samples are centrifuged and 30 μL of the supernatant is added to 100 μL of water. OD414 measurements are read for hemoglobin concentration. The bee venom peptide melittin is used as a positive control. EC50 values are determined as described above.
Cytotoxicity is also evaluated in a hemolysis assay using isolated human erythrocytes. Pooled whole human blood is centrifuged to separate the red blood cells (RBC). The isolated RBCs are rinsed and diluted in Tris-buffered saline (TBS buffer, pH 7.4) to obtain a 0.22% RBC stock suspension. […] OD405 measurements are read for hemoglobin concentration. […] EC50 values are determined using a four parameter logistic equation: Y=Bottom+(Top−Bottom)/(1+10^((Log EC50−X)*HillSlope)).

NIH/3T3 cells = test: Cytotoxicity colorimetric assay; type: cell-based; conditions: Mus musculus, NIH3T3, 1 h, one hour incubation in serum-free media
Experimental: Cytotoxicity of the compounds are evaluated in a colorimetric assay using a transformed human liver cell line (HepG2, HB-8065) and an embryonic mouse cell line (NIH/3T3 cells, CRL-1658). This assay measures the bioreduction of a novel tetrazolium compound to a soluble formazan product by viable cells. HepG2 cells are seeded in 96 well plates at 2×10^4 cells/well in MEM medium with 10% fetal bovine serum (FBS) 24 hours prior to use. NIH/3T3 cells are seeded in 96 well plates at 2×10^4 cells/well in DMEM medium with 10% bovine calf serum (BCS) 24 hours prior to use. Cell monolayers are rinsed in serum-free media and incubated for one hour with a Compound in serum-free media. After incubation, the media is replaced with serum supplemented media and live cells are measured using the Cell Titer 96 Aqueous […] Assay kit (Promega, Madison, Wis.). EC50 values are determined using a four parameter logistic equation: Y=Bottom+(Top−Bottom)/(1+10^((Log EC50−X)*HillSlope)). […] Data is expressed as EC50 in μg/ml. Cytotoxicity is evaluated in a colorimetric assay using a transformed human liver cell line (HepG2, HB-8065) and an embryonic mouse cell line (NIH/3T3 cells, CRL-1658). This assay measures the bioreduction of a novel tetrazolium compound to a soluble formazan product by viable cells. HepG2 cells are seeded in 96 well plates at 3×10^4 cells/well in MEM medium with 10% fetal bovine serum (FBS) 24 hours prior to use. NIH/3T3 cells are seeded in 96 well plates at 2×10^4 cells/well in DMEM medium with 10% bovine calf serum (BCS) 24 hours prior to use. Cell monolayers are rinsed in serum-free media and incubated for one hour with test agent in serum-free media. After incubation, the media is replaced with serum supplemented media and live cells are measured using the Cell Titer 96 Aqueous […] Assay kit (Promega, Madison, Wis.). EC50 values are determined using a four parameter logistic equation: Y=Bottom+(Top−Bottom)/(1+10^((Log EC50−X)*HillSlope)).

[1] = system: primary murine bone marrow-derived macrophages (BMDMs); test: Cytokine and chemokine production in BMDM cells; type: cell-based, mouse
Source text: The specific self-agonistic effect of Compound 116 along with its elevated agonistic effect with LPS stimulation in RAW 264.7 cells prompted evaluation of Compound 116 activity in primary murine bone marrow-derived macrophages (BMDMs). […] This observation is very similar to the immunomodulatory effect of Compound 116 in RAW 264.7 cells.
It was previously reported that the protective activity of a synthetic cationic peptide against bacterial infection was associated with the induction of chemokines such as CXCL1 from macrophages and/or monocytes. Thus, the ability of this nontoxic, nonpeptidic, antimicrobial compound to modulate both cytokine and chemokine production is encouraging for the design of synthetic molecules with multiple biological functions.

For `NCCCOc1cc(-c2ccc3ccc(-c4cc(OCCCN)c(OCCCN)c(OCCCN)c4)cc3c2)cc(OCCCN)c1OCCCN` [Compound 116], the MIC50 (S. aureus (27660)) was 3.13 µg/mL (≈ 4.35 µM), the MIC50 (P. aeruginosa (10145)) was 25 µg/mL (≈ 34.8 µM) and the MIC (Escherichia coli; Escherichia coli, Table 2) was 3.13 µg/mL (≈ 4.35 µM). For the same molecule, the “Selectivity (HC50/MIC) E. coli” value (Escherichia coli; HC50/MIC) was 200 and 209.6, the “MIC E. coli” value (Escherichia coli; Table 2) was “≈ 3 μg/ml” and the “Selectivity (HC50/MIC) S. aureus” value (Staphylococcus aureus; HC50/MIC) was 200 and 209.6. For the same molecule, the “selectivity, times higher than the selectivity of MSI-78” value (Staphylococcus aureus; S. aureus and E. coli, relative to MSI-78) was roughly 20 times, the MIC (Staphylococcus aureus; Staphylococcus aureus, Table 2, read-out: MIC S. aureus) was 3.13 µg/mL (≈ 4.35 µM) and the “MIC S. aureus” value (Staphylococcus aureus; Table 2) was “≈ 3 μg/ml”. For the same molecule, the HC50 (human RBCs) was 656 µg/mL, the EC50 (NIH/3T3 cells) was 165 µg/mL (≈ 230 µM) and the “LPS-induced TNF production” value ([1]; 5.0 μg/mL preincubation 1 hour, LPS 100 ng/mL 15 hours, FIG. 3A) was “significantly increased”. For the same molecule, the “LPS-induced IL-10 production” value ([1]; 5.0 μg/mL preincubation 1 hour, LPS 100 ng/mL 15 hours, FIG. 3B) was “inhibited”, the TNF production ([1]; 5.0 μg/mL, in the absence of LPS, FIG. 3A) was 30 pg/mL and the “murine KC (chemokine CXCL1) levels” value ([1]; 5.0 μg/mL, relative to the DMSO control, FIG. 3C) was “significantly higher levels”.
